Legend:
[1] = system: brush-border membrane vesicles (BBMVs); experiment: Membrane fluidity of BBMVs by fluorescence polarization (fluorescence anisotropy); details: rat BBMVs, 37 °C, SLG-30 0.1-1.0% v/v, vs control, n = 4
Protocol: To prepare BBMVs, we followed the methods as reported previously with a slight modification. Briefly, an in situ small intestinal loop was prepared in each rat, as mentioned above, and then, PBS (pH 7.4) was administered into the loop. The fat was trimmed off from the small intestine and mesentery. Then, the whole small intestine was soaked in ice-cold PBS (pH 7.4). The small intestine was divided into 10 cm segments. Mucosa was scraped out with a slide glass from each of these segments and used for subsequent studies. BBMVs were prepared by the divalent cation precipitation method using MgCl2 in the presence of ethylenebis (oxyethylenenitrilo) tetraacetic acid (EGTA). Briefly, the collected mucosa was homogenized in a buffer containing mannitol (300 mM), EGTA (5 mM), and Tris (pH 7.4) (12 mM) by using a tissue homogenizer. An aqueous solution of 10 mM magnesium chloride was added to the homogenate. The homogenate was centrifuged at 3000× g for 15 min. The supernatant was then centrifuged at 32,000× g for 30 min. The pellet was resuspended in a buffer containing mannitol (300 mM), EGTA (5 mM), and Tris (pH 7.4) (12 mM) by using a 26-G needle. The protein concentration was determined by the BCA method using bovine serum albumin as a standard, and the final concentration was adjusted to 1 mg/ml in each Eppendorf tube. The samples were frozen by liquid nitrogen and kept at −80 °C for further studies.
The BBMVs (100 μg protein) were incubated with 1 μM DPH, with 0.5 μM tma-DPH or with 5 μM DNS-Cl in HEPES-Tris buffer (25 mM HEPES, 5.4 mM KCl, 1.8 mM CaCl2, 0.8 mM MgSO4, 140 mM NaCl, 5 mM glucose, pH 7.4 adjusted by 1 M Tris) in the dark at 37 °C for 30 min [25, 28]. Then, various concentrations (0.1% v/v, 0.25% v/v, 0.5% v/v, and 1.0% v/v) of SLG-30 were added. Then, the samples were incubated in the dark for 1 min at 37 °C. For the control group, the same procedure was carried out by adding the HEPES-Tris buffer only. The fluorescence intensities and the steady-state polarization of fluorescence expressed as the fluorescence anisotropy, r, of the labeled membrane vesicles were measured at 37 °C. The excitation and emission wavelengths were λex = 360 nm, and λem = 430 nm for DPH and tma-DPH and λex = 380 nm and λem = 480 nm for DNS-Cl. The measurements were carried out by using a Hitachi Spectrofluorometer (F-2000 Spectrofluorometer, Hitachi Seisakusho Corp, Yokohama, Japan) equipped with a polarizer set.
The fluorescence anisotropy (r) was calculated using the following equation: r=IV−IH/IV+2IH where IV and IH respectively represent the […] fluorescence intensities to the polarized excitation plane.

rat small intestines = experiment: In situ closed-loop enteric absorption of CF with absorption enhancers; type: in vivo; details: for Enhancement Ratio (AUC with enhancer/AUC control without enhancer): CF 0.5 mg/kg, rat small intestine
Protocol: The enteric absorption of CF was examined by an in situ closed-loop method, as reported previously. The experiments were carried out in accordance with the guidelines of the Animal Ethics Committee at Kyoto Pharmaceutical University. The protocols were approved by this Committee (permit number: 16-12-069, permit date: 14 April 2016). The rats were starved overnight for approx. 16 h pre-dosing, but water was freely available. After inducing anesthesia with sodium pentobarbital which was administered intraperitoneally at a dose of 32 mg/kg body weight, the rats were placed under a heat lamp to maintain a body temperature at around 37 °C, and the intestines were exposed using a midline-abdominal incision. After the bile duct was ligated, the intestines were washed with phosphate buffered saline (PBS, pH 7.4), and the remaining buffer solution was expelled with air. Enteric cannulation was performed at both ends using polyethylene tubing, and the distal parts of the small intestines were clipped by forceps. The dosing solutions (3 mL) with or without absorption enhancers kept at 37 °C, were directly introduced into the lumen of the enteric loop through a cannulated opening in the proximal part of the small enteric loop, which was then closed by clipping with another forceps. The jugular vein was exposed, and approx. 0.3 mL of blood was collected via a direct puncture into heparinized syringes at predetermined time intervals up to 240 min. The samples were immediately centrifuged at 12,000 rpm (15,000× g) for a period of 5 min to obtain the plasma fraction, which was stored on ice for further analysis. CF fluorescence signals in these plasma samples were detected after the treatment with the same volume of acetonitrile using a fluorescence spectrophotometer, Powerscan1 HT supplied by BioTek Instruments (Winooski, VT, USA) at an excitation wavelength of 485 nm and an emission wavelength of 535 nm. There was no significant background fluorescence in the plasma when the fluorescence intensities of CF were determined in this study. The peak drug concentrations (Cmax) and the time to reach the peak drug concentrations (Tmax) in the plasma were directly determined from the plasma concentration–time profiles. The area under the curve (AUC) was calculated by the trapezoidal method from pre-dose (time zero) till the administration of the final sample. The absorption enhancement ratios of CF, with or without absorption enhancers, were calculated as follows: Absorption enhancement ratio = AUCwith enhancer/AUCcontrol without enhancer

Caco-2 cell monolayers [2] = experiment: Transepithelial electrical resistance (TEER) of Caco-2 cell monolayers; type: cell-based, Human
Protocol: (§1) Caco-2 cells (passage 45) were cultured in 175-cm^2 culture flask (Thermo Fisher Scientific™, Waltham, MA, USA). The culture medium consisted of DMEM containing 10% FBS, 0.1 mM MEM–NEAA, 2 mM glutamine, 100 U/mL penicillin, and 100 µg/mL streptomycin [30]. Cells were cultured in a humidified atmosphere of 5% CO2 at 37 °C. The culture medium was changed every two days. When the cultured Caco-2 cells became sub-confluent, they were seeded onto 12-mm Transwell® with 0.4-µm pore polycarbonate membrane inserts (Corning Inc., New York, NY, USA) at a density of 1 × 10^5 cells/insert. The transepithelial transport studies were performed when the transepithelial electrical resistance (TEER) values were more than 500 Ω·cm^2 (i.e., after 21 days). Briefly, after removing the incubation medium by aspiration, the apical and basal sides were washed thrice by Hank’s Balanced Salt (HBSS) solution (pH 7.4). The cells were incubated in HBSS (pH 6.0) for the apical side and HBSS (pH 7.4) for the basal side for 20 min at 37 °C. HBSS supplemented with 1 mg/mL glucose was used in all cell culture experiments. After removing the washing solution by aspiration, 500 µL of 10 µM CF in a HBSS (pH 6.0) solution with or without various concentrations (0.001% v/v, 0.01% v/v, 0.025% v/v, 0.05% v/v, and 0.1% v/v) of SLG-30, 0.1% (w/v) and 1% (w/v) NaGC or 0.05% (w/v) sodium laurate were added to the apical side at zero time, whereas precisely 1500 µL of HBSS (pH 7.4) was added to the basal side at 37 °C. The cells were kept at 37 °C and 5% CO2 and were continuously agitated on a shaker during the transport experiments.
(§2) The TEER values were measured by Millicell® (ERS-2 Volt-Ohm Meter, Billerica, MA, USA) at the predetermined times up to 24 h, and the initial values were considered as 100%. The samples from the basal side were withdrawn at predetermined time points up to 24 h. The samples were replaced with an equal volume of HBSS (pH 7.4). CF was determined as previously mentioned. The apparent permeability coefficients Papp (cm/s) for the transported CF was determined by the following equation: Papp=dXR/dt×1/A×1/C0 where Papp is the apparent permeability coefficient in centimeters per second, XR is the amount of CF in moles in the receptor side, dXR/dt is the flux across the monolayer, A is the diffusion area (i.e., in square centimeters), and C0 is the initial concentration of CF in the donor side in moles per milliliter.

Caco-2 cells = experiment: Caco-2 cell damage by LDH release; type: cell-based, Human; details: after the transport studies, n = 6
Protocol: After the transport studies were over, the solution on the apical side of each well was collected. Cell injury caused by SLG-30 was determined by tracking the LDH release. The cell precipitate and the monolayers left on the filters were solubilized with 1% (v/v) Triton X-100. The solutions from apical sides and the lysates were centrifuged for 7 min at 200× g at a temperature of 4 °C. The activities of LDH in the supernatant were measured. (LDHrelease) stands for the activity of the LDH released into the apical side in the existence of SLG-30. (LDHcell) stands for the activity of the LDH obtained from the cell lysate. LDHreleased% was calculated by the following equation:LDHrelease% = LDHrelease × 100/(LDHrelease + LDHcells)

Caco-2 cell monolayers [3] = experiment: Transport of CF across Caco-2 cell monolayers; type: in vitro ADME, Human; details: 10 µM CF
Protocol: as §1, with “After removing the washing solution by aspiration, 500 µL of 10 µM CF in a HBSS (pH 6.0) solution with or without various concentrations (0.001% v/v, 0.01% v/v, 0.025% v/v, 0.05% v/v, and 0.1% v/v) of SLG-30, 0.1% (w/v) and 1% (w/v) NaGC or 0.05% (w/v) sodium laurate were added to the apical side at zero time, whereas precisely 1500 µL of HBSS (pH 7.4) was added to the basal side at 37 °C. The cells were kept at 37 °C and 5% CO2 and were continuously agitated on a shaker during the transport experiments.” left out
as §2, with “The samples from the basal side were withdrawn at predetermined time points up to 24 h. The samples were replaced with an equal volume of HBSS (pH 7.4).” left out

[4] = in situ closed loop, 0.5% (v/v) SLG-30, 0.5% (w/v) sodium laurate, 1% (w/v) sodium glycocholate

Row | AUC0→240 of CF higher than that of the control group (rat small intestines; rat in situ closed loop, 0.5% (v/v) SLG-30 or 1% (w/v) NaGC) [times] | effect on the transport of CF (Caco-2 cell monolayers [3]; 0.1% (w/v) NaGC) | increase of the transport of CF vs control (Caco-2 cell monolayers [3]; 1% (w/v) NaGC) [times] | SMILES | fluorescence anisotropy of tma-DPH (outer lipid bilayers) ([1]; 0.5 μM tma-DPH) | fluorescence anisotropy of DPH (inner lipid bilayers) ([1]; 1 μM DPH) | fluorescence anisotropy of DNS-Cl (protein portion) ([1]; 5 μM DNS-Cl, p < 0.01) | Enhancement Ratio (AUC with enhancer/AUC control without enhancer) (rat small intestines; [4]) | TEER values (Caco-2 cell monolayers [2]; 0.1% (w/v) NaGC) | TEER values (Caco-2 cell monolayers [2]; 1% (w/v) NaGC) | release of LDH from Caco-2 cells vs control (Caco-2 cells; 0.1% (w/v) and 1% (w/v) NaGC) | Tmax of CF (rat small intestines; plasma CF (0.5 mg/kg) given with enhancer into rat small intestine, in situ closed loop, 0.5% (v/v) SLG-30, 0.5% (w/v) sodium laurate, 1% (w/v) sodium glycocholate, mean ± S.E., n = 3) | TEER values (Caco-2 cell monolayers [2]; 0.05% (w/v) sodium laurate, without recovering to the baseline) | activity of LDH released from Caco-2 cells vs control (Caco-2 cells; 0.05% (w/v) sodium laurate) | increase of the transport of CF vs control (Caco-2 cell monolayers [3]; 0.05% (w/v) sodium laurate) [times]
1 |  |  |  | CC(C)CCC[C@@H](C)[C@H]1CC[C@H]2[C@@H]3CC=C4C[C@@H](O)CC[C@]4(C)[C@H]3CC[C@]12C [cholesterol] | increased the fluorescence anisotropy | increased the fluorescence anisotropy | increased the fluorescence anisotropy |  |  |  |  |  |  |  | 
2 | 4.5 | insignificant effect | 5 | C[C@H](CCC(=O)NCC(=O)[O-])[C@H]1CC[C@H]2[C@@H]3[C@H](O)C[C@@H]4C[C@H](O)CC[C@]4(C)[C@H]3C[C@H](O)[C@]12C.[Na+] [Sodium glycocholate, sodium glycocholate] |  |  |  | 4.5 | Almost no effect | significantly decreased then recovered to the baseline | Neither 0.1% (w/v) nor 1% (w/v) of NaGC increased the release of LDH |  |  |  | 
3 |  |  |  | CCCCCCCCCCCC(=O)[O-].[Na+] [Sodium laurate, sodium laurate] |  |  |  | 2.7 |  |  |  | approximately 15 min | significantly reduced | significantly increased | 94

— PMC6523531, “Mechanistic Studies on the Absorption-Enhancing Effects of Gemini Surfactant on the Intestinal Absorption of Poorly Absorbed Hydrophilic Drugs in Rats” (Pharmaceutics, 2019)
